The subject of assay [1] is Escherichia coli. Description: Compound was tested for photoinhibition of Escherichia coli (CIP 548T); Resistant. The assay is classed as functional, organism-based.
The test system of assay [2] is Staphylococcus aureus. The assay is described as follows: Compound was tested for photoinhibition of Staphylococcus aureus(CIP 53156); […]. The assay is classed as functional, organism-based.
The subject of assay [3] is Escherichia coli. Description: Compound was tested for photoinhibition of Escherichia coli (CIP 548T); Sensitive. The format is functional, organism-based.
Assay [4] concerns Staphylococcus aureus. The assay is described as follows: Compound was tested for photoinhibition of Staphylococcus aureus(CIP 53156); Sensitive. The assay is classed as functional, organism-based.
Assay [5] deals with Staphylococcus aureus. Description: Compound was tested for antibacterial activity against Staphylococcus aureus CIP 53156. The assay is classed as functional.
Assay [6] deals with Escherichia coli. The assay is described as follows: Compound was tested for photoinhibition of Escherichia coli (CIP 548T); Partially resistant. The assay is classed as functional, organism-based.
In assay [7] the test system is Staphylococcus aureus. The assay is described as follows: Compound was tested for photoinhibition of Staphylococcus aureus(CIP 53156). The assay is classed as functional, organism-based.
The test system of assay [8] is Staphylococcus aureus. The assay is described as follows: Compound was tested for photoinhibition of Staphylococcus aureus(CIP 53156); Partially resistant. The format is functional, organism-based.

Values after ≈ are worked out from the molar mass of the structure shown. Active and inactive are the calls of the source. The calls are words filed in the database; no cut-off is given here. Where a SMILES comes first, the peptide text is derived from it. Bridges are numbered along the chain shown (N, C = ends). [ ]: non-standard residue; d: D form. The star is where a group is joined. NMePhe(4-NMe2) = CN[C@@H](Cc1ccc(N(C)C)cc1)C(=O)O; Pip(4-oxo) = O=C1CCN[C@H](C(=O)O)C1; Picolinoyl(3-OH) = O=C(c1ncccc1O)*; Phg = N[C@H](C(=O)O)c1ccccc1; dAbu = CC[C@@H](N)C(=O)O

`CC[C@H]1NC(=O)[C@@H](NC(=O)c2ncccc2O)[C@@H](C)OC(=O)[C@H](c2ccccc2)NC(=O)[C@@H]2CC(=O)CCN2C(=O)[C@H](Cc2ccc(N(C)C)cc2)N(C)C(=O)[C@@H]2CCCN2C1=O` ({Picolinoyl(3-OH)}-T[dAbu]P[NMePhe(4-NMe2)][Pip(4-oxo)][Phg]; ester 1-C): the Antibiotic resistance entry with Escherichia coli [1] was “Resistant”.

Take `CCn1cc(C(=O)O)c(=O)c2ccc(C)nc21`: the Antibiotic resistance entry with Staphylococcus aureus [2] is listed as “Resistant”.

On to `CN(C)[C@@H]1C(O)=C(C(N)=O)C(=O)[C@@]2(O)C(O)=C3C(=O)c4c(O)cccc4[C@@](C)(O)[C@H]3C[C@@H]12`, for which the Antibiotic resistance entry in the assay with Escherichia coli [3] and in the assay on Staphylococcus aureus [4] was “Active” in each case.

As to `CN[C@@H]1[C@H](O[C@H]2[C@H](O[C@H]3[C@H](O)[C@@H](O)[C@H](N=C(N)N)[C@@H](O)[C@@H]3N=C(N)N)O[C@@H](C)[C@]2(O)C=O)O[C@@H](CO)[C@H](O)[C@H]1O`, the Antibiotic resistance entry in the assay with Escherichia coli [3] and with Staphylococcus aureus [4] was “Sensitive” each time.

For `CO[C@H]1/C=C/O[C@@]2(C)Oc3c(C)c(O)c4c(O)c(c(/C=N/N5CCN(C)CC5)c(O)c4c3C2=O)NC(=O)/C(C)=C\C=C\[C@H](C)[C@H](O)[C@@H](C)[C@@H](O)[C@@H](C)[C@H](OC(C)=O)[C@@H]1C`, the Antibiotic resistance entry in the assay with Escherichia coli [3] and in the assay on Staphylococcus aureus [4] was “Sensitive” in each case.

For `NC[C@H]1O[C@H](O[C@H]2[C@H](O)[C@@H](O[C@H]3O[C@H](CO)[C@@H](O)[C@H](N)[C@H]3O)[C@H](N)C[C@@H]2N)[C@H](O)[C@@H](O)[C@@H]1O`, the Antibiotic resistance entry with Staphylococcus aureus [4] is given as “Sensitive”.

For the molecule `Nc1ccc(S(N)(=O)=O)cc1`, the Antibiotic resistance result with Escherichia coli [3] and in the assay with Staphylococcus aureus [4] was “Sensitive” in each case.

`O=[N+]([O-])c1ccc(-c2c3nc(c(-c4ccc(OC[C@H]5O[C@H](O)[C@H](O)[C@@H](O)[C@@H]5O)cc4)c4nc(c(-c5ccc(OC[C@H]6O[C@H](O)[C@H](O)[C@@H](O)[C@@H]6O)cc5)c5ccc([nH]5)c(-c5ccc(OC[C@H]6O[C@H](O)[C@H](O)[C@@H](O)[C@@H]6O)cc5)c5ccc2[nH]5)C=C4)C=C3)cc1` yielded a CI50 in the assay on Staphylococcus aureus [5] of 10 mg/L (≈ 8.37 µM).

With `CN[C@H](CC(C)C)C(=O)N[C@H]1C(=O)N[C@@H](CC(N)=O)C(=O)N[C@H]2C(=O)N[C@H]3C(=O)N[C@H](C(=O)N[C@H](C(=O)O)c4cc(O)cc(O)c4-c4cc3ccc4O)[C@H](O)c3ccc(c(Cl)c3)Oc3cc2cc(c3O[C@@H]2O[C@H](CO)[C@@H](O)[C@H](O)[C@H]2O[C@H]2C[C@](C)(N)[C@H](O)[C@H](C)O2)Oc2ccc(cc2Cl)[C@H]1O`, the Antibiotic resistance result in the assay with Staphylococcus aureus [4] is “Sensitive”.

Take `CC1(C)S[C@@H]2[C@H](NC(=O)Cc3ccccc3)C(=O)N2[C@H]1C(=O)O`: the Antibiotic resistance entry with Staphylococcus aureus [4] was “Sensitive”.

Turning to `CC[C@H]1OC(=O)[C@H](C)[C@@H](O[C@H]2C[C@@](C)(OC)[C@@H](O)[C@H](C)O2)[C@H](C)[C@@H](O[C@@H]2O[C@H](C)C[C@H](N(C)C)[C@H]2O)[C@](C)(O)C[C@@H](C)C(=O)[C@H](C)[C@@H](O)[C@]1(C)O`, the Antibiotic resistance entry in the assay with Escherichia coli [6] and in the assay with Staphylococcus aureus [4] was “Partially resistant” in each case.

Regarding `CC1(C)S[C@@H]2[C@H](NC(=O)[C@H](N)c3ccc(O)cc3)C(=O)N2[C@H]1C(=O)O`, in the assay on Escherichia coli [3], the Antibiotic resistance result is “Sensitive”.

Regarding `CC(=O)OCC1=C(C(=O)O)N2C(=O)[C@@H](NC(=O)Cc3cccs3)[C@H]2SC1`, the Antibiotic resistance entry in the assay with Escherichia coli [6] and with Staphylococcus aureus [7] was “Partially resistant” in each case.

Turning to `O=C(N[C@H](CO)[C@H](O)c1ccc([N+](=O)[O-])cc1)C(Cl)Cl`, the Antibiotic resistance result in the assay with Escherichia coli [3] and in the assay on Staphylococcus aureus [8] was “Partially resistant” throughout.
